From PMC11341970 (RSC Advances, 2024)
Like-named read-outs stand apart in the source and are kept apart here.

How the values were obtained:
EeAChE = EeAChE (Electrophorus electricus, UniProt O42275); test: AChE inhibition assay; assay type: biochemical; conditions: for AChE inhibition (% of inhibition): concentration not given
hBACE 1 = hBACE 1 (Homo sapiens, UniProt P56817); test: BACE 1 inhibition assay; assay type: biochemical
[1] = read-out: eeAChE IC50 (μM) ± SD, Ellman assay, mean ± SD of three experiments
[2] = read-out: hBACE 1 IC50 (μM) ± SD, FRET assay, mean ± SD of three experiments

Sequence of EeAChE (O42275 24-633): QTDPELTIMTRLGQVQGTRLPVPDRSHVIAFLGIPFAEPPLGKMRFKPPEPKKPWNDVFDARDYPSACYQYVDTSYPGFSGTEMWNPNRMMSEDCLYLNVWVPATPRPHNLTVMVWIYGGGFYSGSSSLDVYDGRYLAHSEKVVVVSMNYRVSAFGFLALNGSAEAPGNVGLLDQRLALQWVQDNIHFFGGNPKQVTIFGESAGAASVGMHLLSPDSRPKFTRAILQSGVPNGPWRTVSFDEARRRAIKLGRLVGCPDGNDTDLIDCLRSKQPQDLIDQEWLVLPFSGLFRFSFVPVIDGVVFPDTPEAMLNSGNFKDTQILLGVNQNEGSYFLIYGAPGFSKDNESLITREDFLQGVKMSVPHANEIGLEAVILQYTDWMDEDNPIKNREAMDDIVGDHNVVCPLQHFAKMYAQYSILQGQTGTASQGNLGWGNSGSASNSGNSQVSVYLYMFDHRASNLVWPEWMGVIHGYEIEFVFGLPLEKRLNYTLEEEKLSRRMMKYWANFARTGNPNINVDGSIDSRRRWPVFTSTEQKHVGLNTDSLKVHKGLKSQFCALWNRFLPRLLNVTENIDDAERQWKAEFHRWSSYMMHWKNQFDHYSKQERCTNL
Sequence of hBACE 1 (P56817 46-501): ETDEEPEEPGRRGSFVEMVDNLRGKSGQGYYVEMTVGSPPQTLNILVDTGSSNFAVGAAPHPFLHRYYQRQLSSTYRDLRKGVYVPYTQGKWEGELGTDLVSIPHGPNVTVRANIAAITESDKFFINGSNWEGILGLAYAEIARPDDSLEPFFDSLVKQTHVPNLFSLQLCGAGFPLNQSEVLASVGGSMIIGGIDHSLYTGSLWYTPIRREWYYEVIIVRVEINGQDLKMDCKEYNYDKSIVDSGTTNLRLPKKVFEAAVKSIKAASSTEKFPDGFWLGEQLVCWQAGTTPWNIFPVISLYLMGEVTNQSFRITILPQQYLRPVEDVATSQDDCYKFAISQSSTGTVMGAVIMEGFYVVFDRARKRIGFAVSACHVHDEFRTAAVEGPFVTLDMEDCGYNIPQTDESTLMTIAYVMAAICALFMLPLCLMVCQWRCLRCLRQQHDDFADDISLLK

Row | SMILES | IC50 (EeAChE) | IC50 (hBACE 1) | IC50 (EeAChE; [1]) | IC50 (hBACE 1; [2]) | AChE inhibition (% of inhibition) (EeAChE)
1 | [H]/N=C(/N)NN=C(/C=C/c1ccccc1Cl)c1cccn1Cc1ccccc1 [Compound 1b, (Z)-2-((E)-1-(1-Benzyl-1H-pyrrol-2-yl)-3-(2-chlorophenyl)allylidene)hydrazine-1-carboximidamide] | 174 ± 0.92 µM | 183.8 ± 0.92 µM | – | – | –
2 | [H]/N=C(/N)NN=C(/C=C/c1ccc(OC)c(OC)c1)c1cccn1Cc1ccc(F)cc1C(F)(F)F [Compound 3c, (Z)-2-((E)-3-(3,4-Dimethoxyphenyl)-1-(1-(4-fluoro-2-(trifluoromethyl)benzyl)-1H-pyrrol-2-yl)allylidene)hydrazine-1-carboximidamide] | – | – | 58.19 ± 0.44 µM | 204 ± 2.33 µM | –
3 | [H]/N=C(/N)NN=C(/C=C/c1ccc(OC)c(OC)c1)c1cccn1Cc1cc(OC)cc(OC)c1 [Compound 3e, (Z)-2-((E)-1-(1-(3,5-Dimethoxybenzyl)-1H-pyrrol-2-yl)-3-(3,4-dimethoxyphenyl)allylidene)hydrazine-1-carboximidamide] | 57.2 ± 2.47 µM | 162 ± 2.43 µM | – | – | –
4 | [H]/N=C(/N)NN=C(/C=C/c1ccc(C(C)C)cc1)c1cccn1Cc1ccccc1 [Compound 1h, (Z)-2-((E)-1-(1-Benzyl-1H-pyrrol-2-yl)-3-(4-isopropylphenyl)allylidene)hydrazine-1-carboximidamide] | 203.8 ± 1.7 µM | 108 ± 1.2 µM | – | – | –
5 | [H]/N=C(/N)NN=C(/C=C/c1ccc(C(C)(C)C)cc1)c1cccn1Cc1ccc(C(C)(C)C)cc1 [Compound 3k, (Z)-2-((E)-1-(1-(4-(tert-Butyl)benzyl)-1H-pyrrol-2-yl)-3-(4-(tert-butyl)phenyl)allylidene)hydrazine-1-carboximidamide] | 48.1 ± 0.52 µM | 178.2 ± 0.92 µM | – | – | –
6 | [H]/N=C(/N)NN=C(/C=C/c1ccc(C(C)(C)C)cc1)c1cccn1Cc1ccc(C(F)(F)F)cc1 [Compound 3h, (Z)-2-((E)-3-(4-(tert-Butyl)phenyl)-1-(1-(4-(trifluoromethyl)benzyl)-1H-pyrrol-2-yl)allylidene)hydrazine-1-carboximidamide] | 71.17 ± 0.49 µM | 179 ± 2.26 µM | – | – | –
7 | [H]/N=C(/N)NN=C(/C=C/c1ccccc1)c1cccn1Cc1ccc(OC(F)F)cc1 [Compound 2c, (Z)-2-((E)-1-(1-(4-(Difluoromethoxy)benzyl)-1H-pyrrol-2-yl)-3-phenylallylidene)hydrazine-1-carboximidamide] | – | – | 195.8 ± 0.99 µM | 15.4 ± 0.24 µM | –
8 | [H]/N=C(/N)NN=C(/C=C/c1ccc(OC)cc1)c1cccn1Cc1ccccc1 [Compound 1f, (Z)-2-((E)-1-(1-Benzyl-1H-pyrrol-2-yl)-3-(4-methoxyphenyl)allylidene)hydrazine-1-carboximidamide] | 139.1 ± 0.35 µM | 173 ± 1.06 µM | – | – | –
9 | [H]/N=C(/N)NN=C(/C=C/c1ccc(F)cc1)c1cccn1Cc1ccc(Br)cc1 [Compound 3a, (Z)-2-((E)-1-(1-(4-Bromobenzyl)-1H-pyrrol-2-yl)-3-(4-fluorophenyl)allylidene)hydrazine-1-carboximidamide] | – | – | 86.09 ± 0.33 µM | 165.7 ± 1.34 µM | –
10 | [H]/N=C(/N)NN=C(/C=C/c1ccc(OC)c(OC)c1)c1cccn1Cc1ccccc1 [Compound 1g, (Z)-2-((E)-1-(1-Benzyl-1H-pyrrol-2-yl)-3-(3,4-dimethoxyphenyl)allylidene)hydrazine-1-carboximidamide] | 146 ± 2.4 µM | 114 ± 1.7 µM | – | – | –
11 | [H]/N=C(/N)NN=C(/C=C/c1ccccc1)c1cccn1Cc1ccc(CCCC)cc1 [Compound 2j, (Z)-2-((E)-1-(1-(4-Butylbenzyl)-1H-pyrrol-2-yl)-3-phenylallylidene)hydrazine-1-carboximidamide] | 55.4 ± 4.19 µM | 132.7 ± 1.22 µM | – | – | –
12 | [H]/N=C(/N)NN=C(/C=C/c1ccc([N+](=O)[O-])cc1)c1cccn1Cc1ccccc1 [Compound 1c, (Z)-2-((E)-1-(1-Benzyl-1H-pyrrol-2-yl)-3-(4-nitrophenyl)allylidene)hydrazine-1-carboximidamide] | 43.25 ± 0.41 µM | 194.3 ± 0.99 µM | – | – | 38.07%
13 | [H]/N=C(/N)NN=C(/C=C/c1ccccc1)c1cccn1Cc1ccc(C(C)(C)C)cc1 [Compound 2q, (Z)-2-((E)-1-(1-(4-(tert-Butyl)benzyl)-1H-pyrrol-2-yl)-3-phenylallylidene)hydrazine-1-carboximidamide] | 48.52 ± 0.23 µM | 167.5 ± 0.71 µM | – | – | –
14 | [H]/N=C(/N)NN=C(/C=C/c1ccc(Cl)cc1)c1cccn1Cc1ccc(Br)cc1 [Compound 3l, (Z)-2-((E)-1-(1-(4-Bromobenzyl)-1H-pyrrol-2-yl)-3-(4-chlorophenyl)allylidene)hydrazine-1-carboximidamide] | 123 ± 3.11 µM | 192.3 ± 1.77 µM | – | – | –
15 | [H]/N=C(/N)NN=C(/C=C/c1ccc(C(F)(F)F)cc1)c1cccn1Cc1ccc(CCCC)cc1 [Compound 3b, (Z)-2-((E)-1-(1-(4-Butylbenzyl)-1H-pyrrol-2-yl)-3-(4-(trifluoromethyl)phenyl)allylidene)hydrazine-1-carboximidamide] | – | – | 57.4 ± 1.12 µM | 204.6 ± 0.42 µM | –
16 | [H]/N=C(/N)NN=C(/C=C/c1ccccc1)c1cccn1Cc1ccc([N+](=O)[O-])cc1 [Compound 2l, (Z)-2-((E)-1-(1-(4-Nitrobenzyl)-1H-pyrrol-2-yl)-3-phenylallylidene)hydrazine-1-carboximidamide] | 43.6 ± 0.66 µM | 193.35 ± 0.07 µM | – | – | –
17 | [H]/N=C(/N)NN=C(/C=C/c1ccc(C(C)(C)C)cc1)c1cccn1Cc1ccc(-c2ccccc2)cc1 [Compound 3g, (Z)-2-((E)-1-(1-([1,1′-Biphenyl]-4-ylmethyl)-1H-pyrrol-2-yl)-3-(4-(tert-butyl)phenyl)allylidene)hydrazine-1-carboximidamide] | 76.1 ± 0.79 µM | 185.4 ± 1.84 µM | – | – | –
18 | [H]/N=C(/N)NN=C(/C=C/c1ccc(Cl)cc1Cl)c1cccn1Cc1ccccc1 [Compound 1d, (Z)-2-((E)-1-(1-Benzyl-1H-pyrrol-2-yl)-3-(2,4-dichlorophenyl)allylidene)hydrazine-1-carboximidamide] | 55.4 ± 0.91 µM | 207.9 ± 1.91 µM | – | – | 26.75%
19 | [H]/N=C(/N)NN=C(/C=C/c1ccccc1)c1cccn1Cc1cc(C(F)(F)F)cc(C(F)(F)F)c1 [Compound 2i, (Z)-2-((E)-1-(1-(3,5-Bis(trifluoromethyl)benzyl)-1H-pyrrol-2-yl)-3-phenylallylidene)hydrazine-1-carboximidamide] | 77.56 ± 0.66 µM | 139.1 ± 1.13 µM | – | – | –
20 | [H]/N=C(/N)NN=C(/C=C/c1ccccc1)c1cccn1Cc1ccc(OC(F)(F)F)cc1 [Compound 2b, (Z)-2-((E)-3-Phenyl-1-(1-(4-(trifluoromethoxy)benzyl)-1H-pyrrol-2-yl)allylidene)hydrazine-1-carboximidamide] | – | – | 231.7 ± 1.27 µM | 86.19 ± 0.38 µM | –
21 | [H]/N=C(/N)NN=C(/C=C/c1ccccc1)c1cccn1Cc1ccccc1 [Compound 1a, (Z)-2-((E)-1-(1-Benzyl-1H-pyrrol-2-yl)-3-phenylallylidene)hydrazine-1-carboximidamide] | 215.3 ± 0.14 µM | 169.9 ± 1.27 µM | – | – | –
22 | [H]/N=C(/N)NN=C(/C=C/c1ccccc1)c1cccn1Cc1cccc(Br)c1 [Compound 2m, (Z)-2-((E)-1-(1-(3-Bromobenzyl)-1H-pyrrol-2-yl)-3-phenylallylidene)hydrazine-1-carboximidamide] | 51.14 ± 0.22 µM | 134 ± 3.11 µM | – | – | –
23 | [H]/N=C(/N)NN=C(/C=C/c1ccc(C(C)(C)C)cc1)c1cccn1Cc1ccc(F)cc1F [Compound 3d, (Z)-2-((E)-3-(4-(tert-Butyl)phenyl)-1-(1-(2,4-difluorobenzyl)-1H-pyrrol-2-yl)allylidene)hydrazine-1-carboximidamide] | – | – | 104.3 ± 0.14 µM | 221.8 ± 1.27 µM | –
